This is an account of results in EP2266963A1, “Fluorogenic peptidase substrate” (ECOLE NORMALE SUPERIEURE DE LYON, priority 2009, dated 2010).

Series [1] has as its system leucyl aminopeptidase. Nature of the series: Time-dependent fluorescence signal evolution with pure enzyme in LB medium, with or without inhibitor. In kind it is biochemical. As to conditions: 37°C. The procedure:
Scheme 3 presents the reaction cascade initiated by cleavage of the substrate 1 or 2 by a target peptidase. [drawing 5] • Figure 1 (ordinate in arbitrary fluorescence units a.u.) represents the emission spectra (λexc = 365 nm) of substrate 2 (20 µM) before (curve a) and after incubation with leucyl aminopeptidase for 1 h (curve b) at 25 °C in Tris-HCl buffer. The experiment was monitored with a standard multi-well plate fluorescence spectrophotometer (Spectramax Gemini by Molecular Devices). • Figure 2 presents a fluorogenic test (λexc = 365 nm, λem = 495 nm) at 25 °C for the activity of leucyl aminopeptidase in Tris-HCl (25 mM, pH 7.4) using 38 µM of substrate 1 or 2 , and 0.02 U mL^-1 of leucyl aminopeptidase. The following curves for time-dependent fluorescence signal evolution were obtained : (a) substrate 2 with enzyme, (b) substrate 1 with enzyme (c) substrate 2 without enzyme but with added bovine serum albumin (0.1 mg mL^-1), (d) substrate 1 without enzyme but with added bovine serum albumin (0.1 mg mL^-1). • Figure 3 presents the time-dependent signal evolution obtained with pure enzyme in complex LB (Lysogeny broth) medium (from Fisher, "LB Broth Lennox", ref 240230) rather than in pure buffer (TRIS-HCl).
(§1) Substrate 2 concentration : 6 µM; enzyme : leucyle aminopeptidase (0.01 U); 37°C; LB medium; emission wavelength : 495 nm; Spectramax Gemini from Molecular Device.
Figure 4 presents the time-dependent signal evolution obtained with pure enzyme in LB medium in the presence or absence of a standard aminopeptidase inhibitor (bestatine).
Substrate 2 concentration : 6 µM; enzyme : leucyle aminopeptidase (0.01 U); inhibitor concentration : 10 nM; 37°C; LB medium; emission wavelength : 495 nm ;

For series [2], the system named is bacterial cell line : DH5a. Nature of the series: Incubation of substrate with bacterial cells at wild-type aminopeptidase level in LB medium. It is filed as cell-based, E-Coli. As to conditions: Figure 5, 6 µM substrate added in exponential growth phase (absorbance 0.6 to 0.8), 37°C, emission 495 nm. The procedure: (§2) Substrate 2 concentration : 6 µM; bacterial cell line : DH5a (Invitrogen); 37°C; LB medium; emission wavelength : 495 nm. Substrate 2 is added during the exponential growth phase at an absorbance of 0.6 to 0.8.

A short description of series [3]: Spontaneous degradation of substrate in LB medium without enzyme or cells (background fluorescence signal). In kind it is physicochemical. As to conditions: 37°C, emission 495 nm. The method, then: as §1, §2
In series [4] the test system is leucyl aminopeptidase. Nature of the series: Fluorogenic test for leucyl aminopeptidase activity in Tris-HCl buffer. It is filed as biochemical. As to conditions: Figure 2 curve a; substrate with enzyme; TRIS-HCl buffer 25 mM pH 7.4; 38 µM substrate; 0.02 U mL^-1 enzyme; 25 °C; λexc 365 nm, λem 495 nm. The procedure:
Column chromatography was performed using silicagel Si 60 (40-63 µm). ^1H and ^13C NMR spectra were recorded at 200.13 MHz, 50.13 MHz, respectively. Chemical shifts (δ) are reported in ppm (s = singlet, d= doublet, t = triplet, m = multiplet, br = broad) and quoted with reference to tetramethyl silane or from solvent signals. NMR coupling constants (J) are reported in Hertz. Fluorescence assays were carried out in black roundbottom polypropylene 96-well-plates (NUNCLONE, Nunc Inc.) and recorded on a microplate spectrofluorimeter (Gemini XPS by Molecular Devices).
Scheme 3 presents the reaction cascade initiated by cleavage of the substrate 1 or 2 by a target peptidase. [drawing 5] • Figure 1 (ordinate in arbitrary fluorescence units a.u.) represents the emission spectra (λexc = 365 nm) of substrate 2 (20 µM) before (curve a) and after incubation with leucyl aminopeptidase for 1 h (curve b) at 25 °C in Tris-HCl buffer. The experiment was monitored with a standard multi-well plate fluorescence spectrophotometer (Spectramax Gemini by Molecular Devices). • Figure 2 presents a fluorogenic test (λexc = 365 nm, λem = 495 nm) at 25 °C for the activity of leucyl aminopeptidase in Tris-HCl (25 mM, pH 7.4) using 38 µM of substrate 1 or 2 , and 0.02 U mL^-1 of leucyl aminopeptidase. […]

On to `CC(C)C[C@H](NC(=O)[C@@H](O)[C@H](N)Cc1ccccc1)C(=O)O` [inhibitor (I), bestatine, reference compound], for which, in series [1] (Figure 4, inhibitor 10 nM, 6 µM substrate 2, enzyme 0.01 U), the “effect of inhibitor on signal evolution” value is given as “a delay in signal evolution can be detected”.

In the case of `CC(C)C[C@H](N)C(=O)NCCC(C)(C)C(=O)OCOc1ccccc1-c1nc2ccccc2c(=O)[nH]1` [substrate 2], the “time at which fluorescence signal reaches a plateau” value in series [1] (Figure 3, LB+E+substrate 2, 6 µM substrate, enzyme 0.01 U, emission 495 nm) was “approximately 1 hour”; in series [4], 0.5 h. Besides, in series [1] (Figure 4, LB+E+I+substrate 2, inhibitor bestatine 10 nM, 6 µM substrate, enzyme 0.01 U), the “time at which signal reaches the same level as the uninhibited reaction” value was 2.5 h. The “time at which fluorescence signal reaches a plateau (uninhibited reaction)” value in series [1] (Figure 4, LB+E+substrate 2, no inhibitor, 6 µM substrate, enzyme 0.01 U, emission 495 nm) is reported as “about 1.5 h”. Moreover, in series [2], the “time at which signal reaches a plateau on incubation with cells” value is 2.5 h. Besides, the “time at which signal plateaus in the absence of enzyme” value in series [3] (Figure 3, LB+substrate 2, 6 µM substrate) was “about 12 hours”. Moreover, in series [3] (Figure 5, LB + substrate 2, no cells, 6 µM substrate), the “time at which signal reaches a plateau through slow degradation of the substrate” value was 10 h.
